Data taken from US8119624B2, “Fused phenyl amido heterocyclic compounds” (Pfizer Inc., priority 2006, dated 2012).

Molecular target: T1, Full-length glucokinase (beta cell isoform) (Homo sapiens, UniProt P35557)
T1 construct: Full-length glucokinase (beta cell isoform) was His-tagged at N-terminus; His tag (N); made in house
T1 sequence (P35557 1-465): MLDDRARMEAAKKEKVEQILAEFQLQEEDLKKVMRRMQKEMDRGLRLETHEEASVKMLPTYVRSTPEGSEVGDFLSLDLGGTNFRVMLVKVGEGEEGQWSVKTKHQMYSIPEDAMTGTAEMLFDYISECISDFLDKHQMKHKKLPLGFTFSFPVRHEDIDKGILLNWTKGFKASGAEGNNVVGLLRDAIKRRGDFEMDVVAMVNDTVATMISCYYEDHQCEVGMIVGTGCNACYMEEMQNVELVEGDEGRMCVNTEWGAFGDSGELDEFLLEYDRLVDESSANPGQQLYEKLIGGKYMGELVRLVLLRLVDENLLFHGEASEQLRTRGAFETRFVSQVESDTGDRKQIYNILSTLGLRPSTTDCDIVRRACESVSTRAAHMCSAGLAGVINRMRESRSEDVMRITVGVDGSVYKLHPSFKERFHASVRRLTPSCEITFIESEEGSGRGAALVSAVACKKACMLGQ
Experiment: Glucokinase biochemical assay (PK/LDH-coupled, NADH depletion at 340 nm): % activation, EC50, % max activation
Settings: 5 mM glucose; for activation at 10 µM / % Activation at 10 uM: 10 uM compound, % Activation=(Va/Vo−1)×100; for activation at 10 µM: read-out: % Activation at 10 uM; for EC50: GK activation, read-out: EC50; for Emax / % Max Activation: fitted maximum activation; for Emax: read-out: % Max Activation
Outline: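 Activation expressed as (Va/Vo−1)×100, where initial rates with and without compound come from NADH depletion at 340 nm over 200–900 s. Enzyme is His-tagged human beta-cell GK, full length, run at room temperature in HEPES buffer with 1 mM ATP and 5 mM glucose. DMSO 1%.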

| Structure (SMILES) | activation at 10 µM | EC50 | Emax | % Activation at 10 uM | % Max Activation |
| --- | --- | --- | --- | --- | --- |
| Cn1ccc(NC(=O)c2cc(Oc3ccc(C(=O)N4CCCCC4)c(F)c3)c3c(c2)OC(C)(C)C3)n1 [Example 61, 4-[3-Fluoro-4-(piperidine-1-carbonyl)-phenoxy]-2,2-dimethyl-2,3-dihydro-benzofuran-6-carboxylic acid(1-methyl-1H-pyrazol-3-yl)-amide] | 109% | 100 nM | 107% | – | – |
| CO[C@H]1CCN(C(=O)c2ccc(Oc3cc(C(=O)Nc4ccn(C)n4)cc4c3CC(C)(C)O4)cc2F)C1 [Example 60, 4-[3-Fluoro-4-((S)-3-methoxy-pyrrolidine-1-carbonyl)-phenoxy]-2,2-dimethyl-2,3-dihydro-benzofuran-6-carboxylic acid(1-methyl-1H-pyrazol-3-yl)-amide] | 172% | 270 nM | 167% | – | – |
| Cc1cc2c(Oc3ccc(S(C)(=O)=O)cc3)cc(C(=O)Nc3cnc(N(C)C)cn3)cc2o1 [Example 262, N-(5-(Dimethylamino)pyrazin-2-yl)-2-methyl-4-(4-(methylsulfonyl)-phenoxy)-benzofuran-6-carboxamide] | 151% | 780 nM | 137% | – | – |
| COCc1cc2c(Oc3ccc(S(C)(=O)=O)cc3)cc(C(=O)Nc3cnc(OC)cn3)cc2o1 [Example 312, 2-(Methoxymethyl)-N-(5-methoxypyrazin-2-yl)-4-[4-(methylsulfonyl)phenoxy]-1-benzofuran-6-carboxamide] | 112% | 490 nM | 121% | – | – |
| CN(C)C1CN(C(=O)c2ccc(Oc3cc(C(=O)Nc4ccn(C)n4)cc4c3CC(C)(C)O4)cc2)C1 [Example 49, 4-[4-(3-Dimethylamino-azetidine-1-carbonyl)-phenoxy]-2,2-dimethyl-2,3-dihydro-benzofuran-6-carboxylic acid(1-methyl-1H-pyrazol-3-yl)-amide] | 133% | 455 nM | 147% | – | – |
| C[C@@H](Cc1ccccc1)Oc1cc(C(=O)Nc2ccn(C)n2)cc2c1CC(C)(C)O2 [Example 78, 2,2-Dimethyl-4-((S)-1-methyl-2-phenyl-ethoxy)-2,3-dihydro-benzofuran-6-carboxylic acid (1-methyl-1H-pyrazol-3-yl)-amide] | 139% | 1470 nM | 149% | – | – |
| COCc1cc2c(Oc3ccc(S(C)(=O)=O)cc3)cc(C(=O)Nc3cc(C)on3)cc2o1 [Example 315, 2-(Methoxymethyl)-N-(5-methylisoxazol-3-yl)-4-[4-(methylsulfonyl)phenoxy]-1-benzofuran-6-carboxamide] | 11.9% | – | – | – | – |
| Cn1ccc(NC(=O)c2cc(OCc3noc(C(C)(C)C)n3)c3c(c2)OC(C)(C)C3)n1 [Example 91, 4-(5-tert-Butyl-[1,2,4]oxadiazol-3-ylmethoxy)-2,2-dimethyl-2,3-dihydro-benzofuran-6-carboxylic acid (1-methyl-1H-pyrazol-3-yl)-amide] | 150% | 3500 nM | 150% | – | – |
| Cc1nnc(NC(=O)c2cc(Oc3ccc(S(C)(=O)=O)cc3)c3c(c2)OC(C)(C)C3)s1 [Example 24, 4-(4-Methanesulfonyl-phenoxy)-2,2-dimethyl-2,3-dihydro-benzofuran-6-carboxylic acid(5-methyl-[1,3,4]thiadiazol-2-yl)-amide] | 121% | 1490 nM | 140% | – | – |
| COc1cnc(NC(=O)c2cc(Oc3ccc(S(=O)(=O)N4CCC4)cc3)c3cc(C)oc3c2)cn1 [Example 303, 4-(4-(Azetidin-1-ylsulfonyl)phenoxy)-N-(5-methoxypyrazin-2-yl)-2-methyl-benzofuran-6-carboxamide] | 195% | 650 nM | 179% | – | – |
| Cn1ccc(NC(=O)c2cc(OCCCC#N)c3c(c2)OC(C)(C)C3)n1 [Example 93, 4-(3-Cyano-propoxy)-2,2-dimethyl-2,3-dihydro-benzofuran-6-carboxylic acid (1-methyl-1H-pyrazol-3-yl)-amide] | 95.2% | 9700 nM | 136% | – | – |

The remaining lines, values ahead:

| activation at 10 µM | EC50 | Emax | % Activation at 10 uM | % Max Activation | Structure (SMILES) |
| --- | --- | --- | --- | --- | --- |
| – | 3000 nM | – | 162% | 195% | CC1Cc2c(Oc3ccc(S(C)(=O)=O)cc3)cc(C(=O)Nc3ccn(C)n3)cc2O1 (single isomer, unassigned; (-)) [Example 12, (−)-4-(4-Methanesulfonyl-phenoxy)-2-methyl-2,3-dihydro-benzofuran-6-carboxylic acid(1-methyl-1H-pyrazol-3-yl)-amide] |
| 113% | 5300 nM | 152% | – | – | Cc1ccc(NC(=O)c2cc(Oc3ccc(S(C)(=O)=O)cc3)cc3c2CC(C)O3)nc1 (stereo not shown) [Example 2, 6-(4-Methanesulfonyl-phenoxy)-2-methyl-2,3-dihydrobenzofuran-4-carboxylic acid(5-methyl-pyridin-2-yl)-amide] |
| 189% | 55 nM | 150% | – | – | Cn1ccc(NC(=O)c2cc(Oc3ccc(S(=O)(=O)C4CCC4)cc3)c3c(c2)OC(C)(C)C3)n1 [Example 123, 4-(4-Cyclobutanesulfonyl-phenoxy)-2,2-dimethyl-2,3-dihydro-benzofuran-6-carboxylic acid (1-methyl-1H-pyrazol-3-yl)-amide] |
| 196% | 130 nM | 236% | – | – | Cn1ccc(NC(=O)c2cc(Oc3ccc(S(=O)(=O)C4CC4)cc3)c3c(c2)OC(C)(CO)C3)n1 (stereo not shown) [Example 245, 4-(4-Cyclopropanesulfonyl-phenoxy)-2-hydroxymethyl-2-methyl-2,3-dihydro-benzofuran-6-carboxylic acid (1-methyl-1H-pyrazol-3-yl)-amide] |
| 83.9% | 7300 nM | 138% | – | – | Cn1ccc(NC(=O)c2cc(Oc3ccc(S(C)(=O)=O)cc3)c3c(c2F)OC(C)(C)C3)n1 [Example 190, 7-Fluoro-4-(4-methanesulfonyl-phenoxy)-2,2-dimethyl-2,3-dihydro-benzofuran-6-carboxylic acid (1-methyl-1H-pyrazol-3-yl)-amide] |
| 91.3% | > 10000 nM | – | – | – | Cn1ccc(NC(=O)c2cc(Oc3ccc(S(C)(=O)=O)cc3)c3cc(CN4CCCC4=O)oc3c2)n1 [Example 318, N-(1-Methyl-1H-pyrazol-3-yl)-4-[4-(methylsulfonyl)phenoxy]-2-[(2-oxopyrrolidin-1-yl)methyl]-1-benzofuran-6-carboxamide] |
| 18.8% | – | – | – | – | Cc1cc(NC(=O)c2cc(Oc3ccc(S(C)(=O)=O)cc3)c3cc(C)oc3c2)no1 [Example 255, 2-Methyl-N-(5-methylisoxazol-3-yl)-4-(4-(methylsulfonyl)-phenoxy)-benzofuran-6-carboxamide] |
| 151% | 500 nM | 156% | – | – | COCC1(C)Cc2c(Oc3ccc(S(C)(=O)=O)cc3)cc(C(=O)Nc3ccn(C)n3)cc2O1 (stereo not shown) [Example 228, 4-(4-Methanesulfonyl-phenoxy)-2-methoxymethyl-2-methyl-2,3-dihydro-benzofuran-6-carboxylic acid (1-methyl-1H-pyrazol-3-yl)-amide] |
| 99.7% | 5800 nM | 142% | – | – | Cc1cc2c(Oc3ccc(S(C)(=O)=O)cc3)cc(C(=O)Nc3ccon3)cc2o1 [Example 258, N-(Isoxazol-3-yl)-2-methyl-4-(4-(methylsulfonyl)phenoxy)-benzofuran-6-carboxamide] |
| – | 890 nM | – | 83.1% | 113% | COCC1Cc2c(Oc3ccc(C(=O)N(C)C)cc3)cc(C(=O)Nc3ccn(C)n3)cc2O1 (single isomer, unassigned; (-)) [Example 213, (−)-4-(4-Dimethylcarbamoyl-phenoxy)-2-methoxymethyl-2,3-dihydro-benzofuran-6-carboxylic acid (1-methyl-1H-pyrazol-3-yl)-amide] |
| 131% | 920 nM | 155% | – | – | COCc1cc2c(Oc3ccc(S(C)(=O)=O)cc3)cc(C(=O)Nc3cnn(C)n3)cc2o1 [Example 313, 2-(Methoxymethyl)-4-[4-(methylsulfonyl)phenoxy]-N-(2-methyl-2H-1,2,3-triazol-4-yl)-1-benzofuran-6-carboxamide] |
| 139% | 370 nM | 156% | – | – | CC1(C)Cc2c(Oc3ccc(S(C)(=O)=O)cc3)cc(C(=O)Nc3ccccn3)cc2O1 [Example 19, 4-(4-Methanesulfonyl-phenoxy)-2,2-dimethyl-2,3-dihydro-benzofuran-6-carbo-xylic acid pyridin-2-ylamide] |
| 83.9% | 710 nM | 98% | – | – | COCC1Cc2c(Oc3ccc(C(=O)N4CCC4)cc3)cc(C(=O)Nc3ccn(C)n3)cc2O1 (stereo not shown) [Example 208, 4-[4-(Azetidine-1-carbonyl)-phenoxy]-2-methoxymethyl-2,3-dihydro-benzofuran-6-carboxylic acid (1-methyl-1H-pyrazol-3-yl)-amide] |
